Assays:
Raf-1(truncated) = test: Raf-1 inhibitor screening by chemoluminescence method; assay type: biochemical; details: Final concentration 1 x 1.0*10^−5 mol/ml
Text: 1. Inhibitory activity of the compound of the present invention on raf kinase
Raf-1 inhibitor screening by chemoluminescence method
Westernblot electrophoresis apparatus Rotaryshaker
Raf-1(truncated), Magnesium/ATP Cocktail, MEK1 unactive

[1] = tested on: human lung cancer cell strain A549; test: MTT assay, inhibition of growth of human lung cancer cell strain A549; assay type: cell-based
Method in brief: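 A549 cells grown in F12 with 10% FBS; growth read by MTT, inhibition rate from blank-corrected OD of drug wells versus control wells.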

[2] = tested on: human high-metastic lung cancer cell 95D; test: Inhibition of human high-metastic lung cancer cell 95D migration (Boyden Chamber Transwell); assay type: cell-based; details: Final concentration 1 x 1.0*10^(−5) mol/L
Method in brief: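 Boyden Transwell migration (8 μm pores) of 95D cells, RPMI-1640 with 10% FBS versus serum-free medium; inhibition rate calculated.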

lung cancer cell A549 = test: Effects on the adhesive ability of lung cancer cell A549; assay type: cell-based, human; details: Final concentration 1 x 1.0*10^(−5) mol/L
Method in brief: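 A549 cells in 1640 medium with 10% FBS tested for adhesion to gelatin versus poly-lysine (PLL), with CCK8 used as read-out. Inhibition rate derived from the gelatin/PLL adhesion OD ratio of dosed cells relative to the undosed cell group.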

[3] = tested on: human umbilical vein endothelial cell HUVEC; test: Growth of human umbilical vein endothelial cell HUVEC by CCK8 method; assay type: cell-based; details: Final concentration 1 x 1.0*10^(−5) mol/L
Method in brief: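 HUVEC cells were grown in 1640 medium with 10% FBS, and growth was measured by the CCK8 method. OD values of drug and control wells were corrected by subtracting the blank-well OD.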

[4] = tested on: human umbilical vein endothelial cell HUVEC; test: Lumen formation ability of HUVEC (Matrigel method); assay type: cell-based; details: Final concentration 1 x 1.0*10^(−5) mol/L
Method in brief: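 HUVEC at passage 3–5, cultured in M199 at 37° C under 5% CO2, were plated on Matrigel with compound. Spontaneous lumen formation was scored as an inhibition rate.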

[5] = tested on: human lung cancer A549 transplantation tumor; assay type: in vivo; details: BALB/cA nude mice; 60 mg/kg, 6 times every week for 3 weeks; Sorafenib oral 60 mg/kg
Method in brief: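 Female BALB/cA nude mice, 35-40 days old, bearing A549 human lung cancer transplants; 6 per treatment group, 12 saline controls. Compound given at 60 mg/kg, 6 times weekly for 3 weeks, then observed one week.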

[6] = tested on: human liver cancer cell bel-7402 transplantation tumor; assay type: in vivo; details: BALB/cA nude mice; 60 mg/kg, 6 times every week for 3 weeks; Sorafenib oral 60 mg/kg
Method in brief: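 Female BALB/cA nude mice (35–40 days, 18–22 g) bearing Bel-7402 xenografts; 6 mice per treated group, 12 in saline controls. Compound dosed at 60 mg/kg, 6 times weekly for 3 weeks, followed by one week of observation; tumor inhibition rate scored against controls.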

[7] = tested on: renal carcinoma cell line GCR-1 transplanted tumor; assay type: in vivo, BALB/cA nude mice; details: BALB/cA nude mice; 60 mg/kg, 6 times every week for 3 weeks; Sorafenib oral 60 mg/kg
Method in brief: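 Female BALB/cA nude mice (18–22 g) bearing GCR-1 renal carcinoma xenografts, 6 per treated group, 12 saline controls. Drug given at 60 mg/kg, 6 times weekly for 3 weeks, then one week of observation; tumor inhibition rate reported.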

mice S180 sarcoma = test: Experimental therapeutic action on S180 sarcoma mice; details: mice S180 sarcoma, 60 mg/kg orally for 9 days
Procedure: Experimental therapeutic action of the compound in the present invention on S180 sarcoma mice
18-25 g female ICR mice and well grown 7-11 day old mice sarcoma S180 tumor seeds were selected, and the seeds were inoculated into the subcutaneous at the right axillary. After inoculated 24 hours, these mice were randomly divided into cages and orally administrated 60 mg/kg for 9 days. On 10 day, the animals were killed and weighed, and the tumor weights were weighed to calculate average tumor weight in each group, followed by calculating the tumor inhibition rate according to the following formula and T test.

[8] = tested on: Human colon cancer HT-29 transplantable tumor; test: Human colon cancer HT-29 transplantable tumor in nude mice; details: HT-29 in nude mice, 60 mg/kg ig 9 times

Row | SMILES | Inhibition rate % on raf kinase (Raf-1(truncated)) | Inhibition rate, growth of human lung cancer cell A549 [1] | Inhibition rate, 95D cell strain migration [2] | Inhibition rate, adhesion ability of human lung cancer cell A549 (lung cancer cell A549) | Inhibition rate, growth of HUVEC cell [3] | Inhibition rate, lumen formation ability of HUVEC [4] | Relative tumor reproduction rate T/C (%) on human lung cancer A549 transplantation tumor in nude mice [5] | Relative tumor reproduction rate T/C (%) on human liver cancer cell bel-7402 transplantation tumor model in nude mice [6] | Relative tumor reproduction rate T/C (%) on human renal carcinoma GCR-1 cell transplanted tumor model in nude mice [7] | Tumor growth inhibition rate (%) (mice S180 sarcoma) | Relative tumor reproduction rate T/C (%) [8]
1 | Nc1ccc2c(Oc3ccc(NC(=O)Nc4ccc(Br)c(C(F)(F)F)c4)cc3)cncc2c1 [Compound 27, N-(4-bromo-3-(trifluoromethyl)phenyl)-N′-(4-(4-(7-amino-isoquinolyl)oxy)phenyl)urea] | 8.8% | 64.71% | 59.77% | 94.77% | 24.73% | 89.75% | 36.3% | 29.2% | 26.2% | 55.1% | 80.3%
2 | Cc1cc(Oc2ccc(NC(=O)Nc3ccc(Cl)c(C(F)(F)F)c3)cc2)c[nH]1 [Compound 28, N-(4-chloro-3-(trifluoromethyl)phenyl)-N′-(4-(4-(2-methyl-pyrryl)oxy)phenyl)urea] | 33.5% | 88.52% | 70.53% | 90.53% | 20.55% | 89.52% | 13.6% | 17.5% | 11.4% | 11.5% | 39.1%
3 | Cc1cc(Oc2ccc(NC(=O)Nc3ccc(Br)c(C(F)(F)F)c3)cc2)c[nH]1 [Compound 30, N-(4-bromo-3-(trifluoromethyl)phenyl)-N′-(4-(4-(2-methyl-pyrryl)oxy)phenyl)urea] | 16.8% | 85.47% | 69.62% | 92.44% | 25.46% | 90.66% | 13.1% | 16.1% | 10.2% | 55.2% | 79.5%
4 | CCc1cc(NC(=O)Nc2ccc(Oc3ccnc4cc(F)c(OC)cc34)cc2)ccc1Cl [Compound 31, N-(4-chloro-3-ethylphenyl)-N′-(4-(4-(6-methoxyl-7-fluoro-quinolinyl)oxy)phenyl)urea] | 89.4% | 46.78% | 76.18% | 66.77% | 26.70% | 66.77% | 38.7% | 33.4% | 31.4% | 50.3% | 50.3%
5 | CCc1ccc(NC(=O)Nc2ccc(Oc3ccnc4cc(F)c(OC)cc34)cc2)cc1C(F)(F)F [Compound 32, N-(4-ethyl-3-(trifluoromethyl)phenyl)-N′-(4-(4-(6-methoxyl-7-fluoro-quinolinyl)oxy)phenyl)urea] | 90.5% | 45.76% | 66.92% | 64.73% | 24.77% | 54.74% | 35.3% | 31.4% | 32.5% | 49.8% | 46.2%
6 | CCc1cc(NC(=O)Nc2ccc(Oc3ccnc4cc(F)c(C)cc34)cc2)ccc1Cl [Compound 33, N-(4-chloro-3-ethylphenyl)-N′-(4-(4-(6-methyl-7-fluoro-quinolinyl)oxy)phenyl)urea] | 92.3% | 57.53% | 77.52% | 77.59% | 17.50% | 67.51% | 37.5% | 32.7% | 33.4% | 55.3% | 39.9%
7 | CCc1ccc(NC(=O)Nc2ccc(Oc3ccnc4cc(F)c(C)cc34)cc2)cc1C(F)(F)F [Compound 34, N-(4-ethyl-3-(trifluoromethyl)phenyl)-N′-(4-(4-(6-methyl-7-fluoro-quinolinyl)oxy)phenyl)urea] | 96.2% | 59.52% | 63.65% | 76.54% | 19.52% | 66.52% | 22.3% | 31.5% | 36.1% | 52.6% | 45.9%
8 | CCNC(=O)c1cc(Oc2ccc(NC(=O)Nc3ccc(Cl)c(OC)c3)c(C)c2)c2ccc([N+](=O)[O-])cc2n1 [Compound 35, N-(4-chloro-3-methoxyphenyl)-N′-(2-methyl-4-(2-(N-ethylcarbamyl)-4-(7-nitryl-quinolinyl)oxy)phenyl)urea] | 45.3% | 55.74% | 68.47% | 75.72% | 5.74% | 65.70% | 23.6% | 34.5% | 32.3% | 55.8% | 51.2%
9 | CCNC(=O)c1cc(Oc2ccc(NC(=O)Nc3ccc(Cl)c(OC)c3)c(OC)c2)c2ccc([N+](=O)[O-])cc2n1 [Compound 36, N-(4-chloro-3-methoxyphenyl)-N′-(2-methoxyl-4-(2-(N-ethylcarbamyl)-4-(7-nitryl-quinolinyl)oxy)phenyl)urea] | 81.2% | 72.45% | 84.59% | 74.50% | 12.45% | 64.50% | 37.9% | 37.9% | 25.9% | 55.1% | 41.5%
